Laboratory results taken from the supplement of paper PMC10307832.

Columns and labels:
Assay in all cases: relative viability (nuclei count vs DMSO), 5 days (fraction); higher = more cells survive
Venetoclax + Decitabine = compound: CC1(C)CCC(CN2CCN(c3ccc(C(=O)NS(=O)(=O)c4ccc(NCC5CCOCC5)c([N+](=O)[O-])c4)c(Oc4cnc5[nH]ccc5c4)c3)CC2)=C(c2ccc(Cl)cc2)C1 [Venetoclax] + Nc1ncn([C@H]2C[C@H](O)[C@@H](CO)O2)c(=O)n1 [Decitabine] (partner 2 µM)
How it was run: (§1)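 Lung cancer cell lines were pin-tool dosed in 1536-well plates on the day after seeding, with either a lone drug or a fixed anchor-drug dose plus five library-drug doses (not always all listed) in √10 steps. Nuclei were counted on 4× images after 5 days. Relative viability is the ratio of treated-well to vehicle-well nuclei counts, with each value a median of duplicate plates.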

Selumetinib + Tozasertib = compound: Cn1cnc2c(F)c(Nc3ccc(Br)cc3Cl)c(C(=O)NOCCO)cc21 [Selumetinib] + Cc1cc(Nc2cc(N3CCN(C)CC3)nc(Sc3ccc(NC(=O)C4CC4)cc3)n2)n[nH]1 [Tozasertib] (partner 0.1 µM)
How it was run: as §1

Selumetinib + Vorinostat = compound: Cn1cnc2c(F)c(Nc3ccc(Br)cc3Cl)c(C(=O)NOCCO)cc21 [Selumetinib] + O=C(CCCCCCC(=O)Nc1ccccc1)NO [Vorinostat] (partner 1 µM)
How it was run: as §1

Venetoclax + Crizotinib = compound: CC1(C)CCC(CN2CCN(c3ccc(C(=O)NS(=O)(=O)c4ccc(NCC5CCOCC5)c([N+](=O)[O-])c4)c(Oc4cnc5[nH]ccc5c4)c3)CC2)=C(c2ccc(Cl)cc2)C1 [Venetoclax] + C[C@@H](Oc1cc(-c2cnn(C3CCNCC3)c2)cnc1N)c1c(Cl)ccc(F)c1Cl [Crizotinib] (partner 1 µM)
How it was run: as §1

Cell Line | relative viability (Venetoclax + Decitabine; first compound 0.01 µM) | relative viability (Venetoclax + Decitabine; first compound 0.03162 µM) | relative viability (Venetoclax + Decitabine; first compound 0.1 µM) | relative viability (Venetoclax + Decitabine; first compound 0.3162 µM) | relative viability (Venetoclax + Decitabine; first compound 1 µM) | relative viability (Selumetinib + Tozasertib; first compound 0.02 µM) | relative viability (Selumetinib + Tozasertib; first compound 0.06325 µM) | relative viability (Selumetinib + Tozasertib; first compound 0.2 µM) | relative viability (Selumetinib + Tozasertib; first compound 0.6325 µM) | relative viability (Selumetinib + Vorinostat; first compound 0.02 µM) | relative viability (Selumetinib + Vorinostat; first compound 0.06325 µM) | relative viability (Selumetinib + Vorinostat; first compound 0.2 µM) | relative viability (Selumetinib + Vorinostat; first compound 0.6325 µM) | relative viability (Venetoclax + Crizotinib; first compound 0.01 µM) | relative viability (Venetoclax + Crizotinib; first compound 0.03162 µM) | relative viability (Venetoclax + Crizotinib; first compound 0.1 µM) | relative viability (Venetoclax + Crizotinib; first compound 0.3162 µM) | relative viability (Venetoclax + Crizotinib; first compound 1 µM)
SW 900 | 0.455 | 0.444 | 0.356 | 0.405 | 0.39 | 0.609 | 0.517 | 0.564 | 0.478 | 0.423 | 0.399 | 0.409 | 0.588 | – | – | – | – | –
PC-3 [JPC-3] | 0.854 | 0.788 | 0.931 | 0.809 | 0.805 | 0.991 | 0.813 | 0.769 | 0.655 | 1.02 | 0.663 | 0.748 | 0.734 | 0.896 | 0.987 | 1.04 | 0.965 | 0.969
NCI-H1648 | – | 0.487 | 0.418 | 0.634 | 0.491 | 0.54 | 0.488 | 0.487 | 0.456 | – | 0.596 | 0.423 | 0.367 | – | – | – | – | –
A549 | 0.22 | 0.325 | 0.159 | 0.214 | 0.274 | – | – | – | – | – | – | – | – | 0.707 | 0.668 | 0.886 | 0.649 | 0.61
A-427 | 0.54 | 0.546 | 0.55 | 0.54 | 0.559 | 0.205 | 0.193 | 0.168 | 0.17 | 0.93 | 0.94 | 0.976 | 0.878 | 0.584 | 1.09 | 0.873 | 0.924 | 1
NCI-H1975 | 0.358 | 0.371 | 0.414 | 0.393 | 0.43 | 0.753 | 0.703 | 0.684 | 0.591 | 0.726 | 0.605 | 0.582 | 0.473 | 1.13 | 0.907 | 0.974 | 0.879 | 0.867
LU99A | 0.758 | 0.957 | 0.831 | 0.803 | 0.858 | 0.274 | 0.278 | 0.266 | 0.276 | 0.521 | 0.472 | 0.476 | 0.501 | 0.555 | 0.587 | 0.576 | 0.586 | 0.526
NCI-H1755 | 0.737 | 0.754 | 0.714 | 0.739 | 0.713 | 0.597 | 0.552 | 0.563 | 0.558 | 0.821 | 0.68 | 0.726 | 0.852 | 0.769 | 0.885 | 0.872 | 0.863 | 0.779
LOU-NH91 | 0.76 | 0.808 | 0.816 | 0.821 | 0.778 | 0.648 | 0.679 | 0.606 | 0.534 | 0.889 | 0.88 | 0.843 | 0.874 | 0.751 | 0.751 | 0.756 | 0.729 | 0.697
SK-LU-1 | 0.568 | 0.738 | 0.639 | 0.609 | 0.549 | 0.301 | 0.306 | 0.29 | 0.252 | 0.779 | 0.717 | 0.686 | 0.443 | 0.814 | 0.972 | 0.763 | 0.983 | 0.849
BEN | 0.747 | 0.721 | 0.737 | 0.653 | 0.673 | 0.545 | 0.442 | 0.489 | 0.564 | 0.527 | 0.558 | 0.59 | 0.632 | 0.825 | 0.81 | 0.727 | 0.851 | 0.817
NCI-H1734 | 0.464 | 0.515 | 0.504 | 0.474 | 0.493 | 0.244 | 0.251 | 0.234 | 0.227 | 0.787 | 0.814 | 0.694 | 0.85 | 0.733 | 0.833 | 0.724 | 0.73 | 0.614
LCLC-103H | 0.767 | 0.713 | 0.733 | 0.752 | 0.788 | 0.514 | 0.458 | 0.435 | 0.349 | 0.811 | 0.768 | 0.712 | 0.691 | 1.05 | 1.2 | 1.04 | 0.985 | 1.05
ChaGo-K-1 | 0.465 | 0.503 | 0.488 | 0.545 | 0.519 | 0.212 | 0.237 | 0.222 | 0.204 | 0.762 | 0.684 | 0.708 | 0.674 | 1.1 | 1.27 | – | 1.16 | 1.08
Calu-6 | – | – | – | – | – | – | – | – | – | – | – | – | – | 0.79 | 0.798 | 0.794 | 0.776 | 0.72
NCI-H2342 | 0.777 | 0.735 | 0.713 | 0.764 | 0.693 | 0.461 | 0.546 | 0.473 | 0.576 | 0.784 | 0.746 | 0.737 | 0.812 | – | – | – | – | –
EBC-1 | – | – | – | – | – | – | – | – | – | – | – | – | – | 0.213 | 0.18 | 0.207 | 0.211 | 0.146
NCI-H522 | 0.657 | 0.694 | 0.617 | 0.605 | 0.677 | 0.567 | 0.515 | 0.537 | 0.505 | 0.855 | 0.846 | 0.851 | 0.921 | – | – | – | – | –
NCI-H1793 | 0.301 | 0.58 | 0.521 | 0.45 | 0.49 | 0.314 | 0.269 | 0.235 | 0.221 | 0.512 | 0.422 | 0.445 | 0.365 | – | – | – | – | –
NCI-H1792 | 0.522 | 0.506 | 0.468 | 0.502 | 0.463 | – | – | – | – | – | – | – | – | 0.938 | 0.946 | 0.983 | 0.98 | 0.93
IA-LM | – | – | – | – | – | – | – | – | – | 0.728 | 0.648 | 0.366 | 0.198 | 0.727 | 0.709 | 0.584 | 0.848 | 0.708
CAL-12T | – | – | – | – | – | 0.34 | 0.364 | 0.301 | 0.229 | 0.81 | 0.724 | 0.569 | 0.507 | 0.65 | 0.567 | 0.595 | 0.527 | 0.555
